Test results as given in ChEMBL document CHEMBL1201861, “Genomics of Drug Sensitity in Cancer screening data, Wellcome Trust Sanger Institute”.

How the values were obtained:
Test in all cases: cells
Settings in all cases: Homo sapiens
[1] = tested on: NCI-H2126; type: functional, cell-based;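 also: growth inhibition of the cancer cell line, determined with a cell viability readout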
Description: SANGER: Inhibition of human NCI-H2126 cell growth in a cell viability assay.

[2] = tested on: COLO-668; type: functional, cell-based
Description: SANGER: Inhibition of human COLO-668 cell growth in a cell viability assay.

[3] = tested on: no-10; type: functional, cell-based;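 also: growth inhibition of no-10 cells, read out with a cell viability assay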
Description: SANGER: Inhibition of human no-10 cell growth in a cell viability assay.

[4] = tested on: L-363; type: functional, cell-based
Description: SANGER: Inhibition of human L-363 cell growth in a cell viability assay.

[5] = tested on: U-87 MG; type: functional, cell-based, U-87MG ATCC;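 also: growth inhibition of the cells measured with a viability assay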
Description: SANGER: Inhibition of human U-87-MG cell growth in a cell viability assay.

[6] = tested on: TK-10; type: functional, cell-based;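 also: growth inhibition of TK-10 cells, read out in a cell viability assay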
Description: SANGER: Inhibition of human TK10 cell growth in a cell viability assay.

[7] = tested on: MS-1; type: functional, cell-based;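 also: growth inhibition of MS-1 cells, read out by cell viability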
Description: SANGER: Inhibition of human MS-1 cell growth in a cell viability assay.

[8] = tested on: NCI-H1650; type: functional, cell-based;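 also: growth inhibition of human NCI-H1650 cells measured by a cell viability assay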
Description: SANGER: Inhibition of human NCI-H1650 cell growth in a cell viability assay.

[9] = tested on: NCI-H226; type: functional, cell-based;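 also: cell viability read-out used to gauge growth inhibition of the cells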
Description: SANGER: Inhibition of human NCI-H226 cell growth in a cell viability assay.

[10] = tested on: TE-12; type: functional, cell-based;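 also: growth inhibition of TE-12 cells, read out by a cell viability assay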
Description: SANGER: Inhibition of human TE-12 cell growth in a cell viability assay.

[11] = tested on: NCI-H1395; type: functional, cell-based;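 also: cell viability assay read-out quantifying reduced proliferation of human NCI-H1395 cells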
Description: SANGER: Inhibition of human NCI-H1395 cell growth in a cell viability assay.

[12] = tested on: TE-8; type: functional, cell-based;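 also: growth inhibition of TE-8 cells, measured with a cell viability readout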
Description: SANGER: Inhibition of human TE-8 cell growth in a cell viability assay.

[13] = tested on: SK-N-DZ; type: functional, cell-based;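 also: growth inhibition of the cancer cell line, read out through a viability assay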
Description: SANGER: Inhibition of human SK-N-DZ cell growth in a cell viability assay.

[14] = tested on: VA-ES-BJ; type: functional, cell-based;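 also: growth inhibition of the VA-ES-BJ cell line, read out by a cell viability assay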
Description: SANGER: Inhibition of human VA-ES-BJ cell growth in a cell viability assay.

[15] = tested on: EM-2; type: functional, cell-based;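 also: growth inhibition of EM-2 cells, read out with a cell viability assay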
Description: SANGER: Inhibition of human EM-2 cell growth in a cell viability assay.

[16] = tested on: no-11; type: functional, cell-based;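 also: growth inhibition of human NO-11 cells, read out with a cell viability assay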
Description: SANGER: Inhibition of human no-11 cell growth in a cell viability assay.

[17] = tested on: A101D; type: functional, cell-based;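 also: growth inhibition of the cell line, measured with a viability assay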
Description: SANGER: Inhibition of human A101D cell growth in a cell viability assay.

[18] = tested on: TE-9; type: functional, cell-based;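 also: cell growth inhibition, measured with a cell viability readout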
Description: SANGER: Inhibition of human TE-9 cell growth in a cell viability assay.

[19] = tested on: SK-PN-DW; type: functional, cell-based;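 also: growth inhibition measured with a viability assay on these cells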
Description: SANGER: Inhibition of human SK-PN-DW cell growth in a cell viability assay.

[20] = tested on: SW 962; type: functional, cell-based;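 also: growth inhibition of human SW962 cells, read out by a cell viability assay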
Description: SANGER: Inhibition of human SW962 cell growth in a cell viability assay.

[21] = tested on: HT-144; type: functional, cell-based
Description: SANGER: Inhibition of human HT-144 cell growth in a cell viability assay.

[22] = tested on: EKVX; type: functional, cell-based;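 also: growth inhibition of human EKVX cells, read out with a cell viability assay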
Description: SANGER: Inhibition of human EKVX cell growth in a cell viability assay.

[23] = tested on: SF-126; type: functional, cell-based;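 also: growth inhibition of human SF126 cells, read out with a cell viability assay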
Description: SANGER: Inhibition of human SF126 cell growth in a cell viability assay.

[24] = tested on: DB; type: functional, cell-based
Description: SANGER: Inhibition of human DB cell growth in a cell viability assay.

[25] = tested on: LB373-MEL-D; type: functional, cell-based;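 also: growth inhibition of the cell line, read out in a cell viability assay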
Description: SANGER: Inhibition of human LB373-MEL-D cell growth in a cell viability assay.

[26] = tested on: GAK; type: functional, cell-based;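 also: cell growth inhibition read out by a cell viability assay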
Description: SANGER: Inhibition of human GAK cell growth in a cell viability assay.

[27] = tested on: IA-LM; type: functional, cell-based;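 also: cell viability assay measuring growth inhibition of human IA-LM cells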
Description: SANGER: Inhibition of human IA-LM cell growth in a cell viability assay.

[28] = tested on: NB5; type: functional, cell-based;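 also: growth inhibition of NB5 cells, read out as cell viability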
Description: SANGER: Inhibition of human NB5 cell growth in a cell viability assay.

[29] = tested on: NCI-H1355; type: functional, cell-based;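 also: growth inhibition of human NCI-H1355 cells, read out by a cell viability assay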
Description: SANGER: Inhibition of human NCI-H1355 cell growth in a cell viability assay.

[30] = tested on: NCI-H1648; type: functional, cell-based;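 also: cell viability assay measuring inhibition of NCI-H1648 cell growth, from the Sanger screening data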
Description: SANGER: Inhibition of human NCI-H1648 cell growth in a cell viability assay.

[31] = tested on: SK-NEP-1; type: functional, cell-based;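 also: growth inhibition of human SK-NEP-1 cells, read out by a cell viability assay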
Description: SANGER: Inhibition of human SK-NEP-1 cell growth in a cell viability assay.

[32] = tested on: KGN; type: functional, cell-based;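 also: growth inhibition of KGN cells, read out with a cell viability assay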
Description: SANGER: Inhibition of human KGN cell growth in a cell viability assay.

[33] = tested on: KARPAS-299; type: functional, cell-based
Description: SANGER: Inhibition of human KARPAS-299 cell growth in a cell viability assay.

[34] = tested on: NCI-H1155; type: functional, cell-based;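 also: cell growth inhibition measured by a viability assay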
Description: SANGER: Inhibition of human NCI-H1155 cell growth in a cell viability assay.

[35] = tested on: EW-16; type: functional, cell-based;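 also: growth inhibition of human EW-16 cells, read out as cell viability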
Description: SANGER: Inhibition of human EW-16 cell growth in a cell viability assay.

[36] = tested on: EW-11; type: functional, cell-based;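 also: growth inhibition of human EW-11 cells, measured with a cell viability assay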
Description: SANGER: Inhibition of human EW-11 cell growth in a cell viability assay.

[37] = tested on: RXF 393; type: functional, cell-based;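 also: growth inhibition of human RXF 393 cells, read out with a cell viability assay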
Description: SANGER: Inhibition of human RXF393 cell growth in a cell viability assay.

[38] = tested on: NEC8; type: functional, cell-based;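 also: growth inhibition of human NEC8 cells, read out by a cell viability assay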
Description: SANGER: Inhibition of human NEC8 cell growth in a cell viability assay.

[39] = tested on: TE-5; type: functional, cell-based;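 also: inhibition of cell growth, read out by a cell viability assay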
Description: SANGER: Inhibition of human TE-5 cell growth in a cell viability assay.

[40] = tested on: GOTO; type: functional, cell-based;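 also: growth inhibition of GOTO cells, read out by a cell viability assay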
Description: SANGER: Inhibition of human GOTO cell growth in a cell viability assay.

[41] = tested on: MZ1-PC; type: functional, cell-based;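 also: cell viability assay measuring growth inhibition of human MZ1-PC cells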
Description: SANGER: Inhibition of human MZ1-PC cell growth in a cell viability assay.

[42] = tested on: MZ7-mel; type: functional, cell-based;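 also: growth inhibition of human MZ7-mel cells, measured by a cell viability assay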
Description: SANGER: Inhibition of human MZ7-mel cell growth in a cell viability assay.

[43] = tested on: NCI-H23; type: functional, cell-based;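 also: cell viability assay measuring growth inhibition of NCI-H23 cells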
Description: SANGER: Inhibition of human NCI-H23 cell growth in a cell viability assay.

[44] = tested on: SH-4; type: functional, cell-based;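 also: growth inhibition of SH-4 cells, read out with a cell viability assay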
Description: SANGER: Inhibition of human SH-4 cell growth in a cell viability assay.

[45] = tested on: HD-MY-Z; type: functional, cell-based;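 also: growth inhibition of HD-MY-Z cells, read out with a cell viability assay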
Description: SANGER: Inhibition of human HD-MY-Z cell growth in a cell viability assay.

[46] = tested on: TGBC1TKB; type: functional, cell-based;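 also: growth inhibition of TGBC1TKB cells, read out by a cell viability assay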
Description: SANGER: Inhibition of human TGBC1TKB cell growth in a cell viability assay.

[47] = tested on: KINGS-1; type: functional, cell-based;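 also: cell viability assay measuring suppression of KINGS-1 cell growth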
Description: SANGER: Inhibition of human KINGS-1 cell growth in a cell viability assay.

[48] = tested on: RKO; type: functional, cell-based;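 also: growth inhibition of human RKO cells, read out with a cell viability assay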
Description: SANGER: Inhibition of human RKO cell growth in a cell viability assay.

[49] = tested on: NCI-H1838; type: functional, cell-based;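 also: growth inhibition of NCI-H1838 cells, determined with a cell viability readout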
Description: SANGER: Inhibition of human NCI-H1838 cell growth in a cell viability assay.

[50] = tested on: LOX IMVI; type: functional, cell-based
Description: SANGER: Inhibition of human LOXIMVI cell growth in a cell viability assay.

[51] = tested on: CGTH-W-1; type: functional, cell-based;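 also: growth inhibition of human CGTH-W-1 cells measured by cell viability assay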
Description: SANGER: Inhibition of human CGTH-W-1 cell growth in a cell viability assay.

[52] = tested on: DEL; type: functional, cell-based;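 also: growth inhibition of the human DEL cell line, read out with a cell viability assay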
Description: SANGER: Inhibition of human DEL cell growth in a cell viability assay.

[53] = tested on: KLE; type: functional, cell-based;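 also: growth inhibition of human KLE cells, read out with a cell viability assay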
Description: SANGER: Inhibition of human KLE cell growth in a cell viability assay.

[54] = tested on: LC-2-ad; type: functional, cell-based;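 also: growth inhibition of human LC-2-ad cells, read out with a cell viability assay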
Description: SANGER: Inhibition of human LC-2-ad cell growth in a cell viability assay.

[55] = tested on: KALS-1; type: functional, cell-based;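 also: growth inhibition of KALS-1 cells, determined with a cell viability assay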
Description: SANGER: Inhibition of human KALS-1 cell growth in a cell viability assay.

[56] = tested on: KNS-81-FD; type: functional, cell-based;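 also: growth inhibition of KNS-81-FD cells, read out with a cell viability assay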
Description: SANGER: Inhibition of human KNS-81-FD cell growth in a cell viability assay.

[57] = tested on: GR-ST; type: functional, cell-based
Description: SANGER: Inhibition of human GR-ST cell growth in a cell viability assay.

[58] = tested on: Calu-6; type: functional, cell-based;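 also: growth of human Calu-6 cells, read out by a cell viability assay, IC50 marking inhibition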
Description: SANGER: Inhibition of human Calu-6 cell growth in a cell viability assay.

[59] = tested on: K562; type: functional, cell-based
Description: SANGER: Inhibition of human K-562 cell growth in a cell viability assay.

[60] = tested on: NCI-H1092; type: functional, cell-based
Description: SANGER: Inhibition of human NCI-H1092 cell growth in a cell viability assay.

[61] = tested on: COLO-800; type: functional, cell-based
Description: SANGER: Inhibition of human COLO-800 cell growth in a cell viability assay.

[62] = tested on: SBC-1; type: functional, cell-based
Description: SANGER: Inhibition of human SBC-1 cell growth in a cell viability assay.

[63] = tested on: ML-2; type: functional, cell-based
Description: SANGER: Inhibition of human ML-2 cell growth in a cell viability assay.

SMILES: O=c1cc(N2CCOCC2)oc2c(-c3cccc4c3sc3ccccc34)cccc12
- IC50 [1]: > 2 µM
- IC50 [2]: > 2 µM
- IC50 [3]: > 2 µM
- IC50 [4]: > 2 µM
- IC50 [5]: > 2 µM
- IC50 [6]: > 2 µM
- IC50 [7]: > 2 µM
- IC50 [8]: > 2 µM
- IC50 [9]: > 2 µM
- IC50 [10]: > 2 µM
- IC50 [11]: > 2 µM
- IC50 [12]: > 2 µM
- IC50 [13]: > 2 µM
- IC50 [14]: > 2 µM
- IC50 [15]: > 2 µM
- IC50 [16]: > 2 µM
- IC50 [17]: > 2000 nM
- IC50 [18]: > 2 µM
- IC50 [19]: > 2 µM
- IC50 [20]: > 2 µM
- IC50 [21]: > 2000 nM
- IC50 [22]: > 2 µM
- IC50 [23]: > 2 µM
- IC50 [24]: > 2 µM
- IC50 [25]: > 2 µM
- IC50 [26]: > 2 µM
- IC50 [27]: > 2 µM
- IC50 [28]: > 2 µM
- IC50 [29]: > 2 µM
- IC50 [30]: > 2 µM
- IC50 [31]: > 2 µM
- IC50 [32]: > 2 µM
- IC50 [33]: > 2 µM
- IC50 [34]: > 2 µM
- IC50 [35]: > 2 µM
- IC50 [36]: > 2 µM
- IC50 [37]: > 2 µM
- IC50 [38]: 1550 nM
- IC50 [39]: > 2 µM
- IC50 [40]: > 2 µM
- IC50 [41]: > 2 µM
- IC50 [42]: > 2000 nM
- IC50 [43]: > 2 µM
- IC50 [44]: > 2000 nM
- IC50 [45]: > 2 µM
- IC50 [46]: > 2 µM
- IC50 [47]: > 2 µM
- IC50 [48]: > 2 µM
- IC50 [49]: > 2 µM
- IC50 [50]: > 2 µM
- IC50 [51]: > 2 µM
- IC50 [52]: > 2 µM
- IC50 [53]: > 2 µM
- IC50 [54]: > 2 µM
- IC50 [55]: > 2 µM
- IC50 [56]: > 2 µM
- IC50 [57]: > 2 µM
- IC50 [58]: > 2 µM
- IC50 [59]: > 2 µM
- IC50 [60]: > 2 µM
- IC50 [61]: > 2 µM

SMILES: CCCS(=O)(=O)Nc1ccc(F)c(C(=O)c2c[nH]c3ncc(Cl)cc23)c1F [PLX-4720]
- IC50 [1]: > 10 µM
- IC50 [2]: > 10 µM
- IC50 [3]: > 10 µM
- IC50 [4]: > 10 µM
- IC50 [5]: > 10 µM
- IC50 [6]: > 10 µM
- IC50 [7]: > 10 µM
- IC50 [8]: > 10 µM
- IC50 [9]: > 10 µM
- IC50 [10]: > 10 µM
- IC50 [11]: > 10 µM
- IC50 [12]: > 10 µM
- IC50 [62]: > 10 µM
- IC50 [13]: > 10 µM
- IC50 [14]: > 10 µM
- IC50 [15]: > 10 µM
- IC50 [16]: > 10 µM
- IC50 [17]: 326 nM
- IC50 [18]: > 10 µM
- IC50 [19]: > 10 µM
- IC50 [20]: > 10 µM
- IC50 [21]: 363 nM
- IC50 [22]: > 10 µM
- IC50 [23]: > 10 µM
- IC50 [24]: > 10 µM
- IC50 [25]: > 10 µM
- IC50 [26]: > 10 µM
- IC50 [27]: > 10 µM
- IC50 [28]: > 10 µM
- IC50 [29]: > 10 µM
- IC50 [30]: > 10 µM
- IC50 [31]: > 10 µM
- IC50 [32]: > 10 µM
- IC50 [33]: > 10 µM
- IC50 [34]: > 10 µM
- IC50 [35]: > 10 µM
- IC50 [36]: > 10 µM
- IC50 [37]: > 10 µM
- IC50 [38]: > 10000 nM
- IC50 [39]: > 10 µM
- IC50 [40]: > 10 µM
- IC50 [41]: > 10 µM
- IC50 [42]: 1150 nM
- IC50 [43]: > 10 µM
- IC50 [44]: 414 nM
- IC50 [45]: > 10 µM
- IC50 [46]: > 10 µM
- IC50 [47]: > 10 µM
- IC50 [48]: > 10 µM
- IC50 [49]: > 10 µM
- IC50 [50]: > 10 µM
- IC50 [51]: > 10 µM
- IC50 [52]: > 10 µM
- IC50 [53]: > 10 µM
- IC50 [54]: > 10 µM
- IC50 [63]: > 10 µM
- IC50 [55]: > 10 µM
- IC50 [56]: > 10 µM
- IC50 [57]: > 10 µM
- IC50 [58]: > 10 µM
- IC50 [59]: > 10 µM
- IC50 [60]: > 10 µM
- IC50 [61]: > 10 µM
